Tests used:
Test in all cases: Bliss excess, mean over the matrix (fraction); higher = more synergy
[1] = system: CHSA8926 (Chondrosarcoma)
How it was run: (§1)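 Bliss excess equals the observed combination effect minus the expected value EA + EB − EA·EB, where EA and EB are the effects of each agent alone. Combination Emax is the second-highest inhibition within the matrix. Inhibition was scaled from CellTiter-Glo 2.0 luminescence, with 0 set by vehicle wells and 1 by blank wells, after 72 hours of two-drug dosing of cells plated in 1536-well plates.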

[2] = system: CW-2 (Colorectal Carcinoma)
How it was run: as §1

[3] = system: DAN-G (Pancreatic Carcinoma)
How it was run: as §1

[4] = system: DMS-114 (Small Cell Lung Carcinoma)
How it was run: as §1

[5] = system: H9 (T-Cell Non-Hodgkin's Lymphoma)
How it was run: as §1

[6] = system: HCC1187 (Breast Carcinoma)
How it was run: as §1

[7] = system: HCC1419 (Breast Carcinoma)
How it was run: as §1

[8] = system: JHH-4 (Hepatocellular Carcinoma)
How it was run: as §1

[9] = system: KMS-12-BM (Plasma Cell Myeloma)
How it was run: as §1

M059J (Glioblastoma) = system: M059J (Glioblastoma)
How it was run: as §1

[10] = system: MOLM-13 (Acute Myeloid Leukemia)
How it was run: as §1

[11] = system: NCCIT (Other Solid Carcinomas)
How it was run: as §1

[12] = system: NCI-H3122 (Lung Adenocarcinoma)
How it was run: as §1

[13] = system: NCI-H526 (Small Cell Lung Carcinoma)
How it was run: as §1

RD (Rhabdomyosarcoma) = system: RD (Rhabdomyosarcoma)
How it was run: as §1

SJSA-1 (Osteosarcoma) = system: SJSA-1 (Osteosarcoma)
How it was run: as §1

[14] = system: SK-GT-2 (Gastric Carcinoma)
How it was run: as §1

[15] = system: SNU-398 (Hepatocellular Carcinoma)
How it was run: as §1

[16] = system: ST486 (Burkitt's Lymphoma)
How it was run: as §1

[17] = system: VMRC-RCZ (Kidney Carcinoma)
How it was run: as §1

Structure (SMILES)	Bliss excess [1]	Bliss excess [2]	Bliss excess [3]	Bliss excess [4]	Bliss excess [5]	Bliss excess [6]	Bliss excess [7]	Bliss excess [8]	Bliss excess [9]	Bliss excess (M059J (Glioblastoma))	Bliss excess [10]	Bliss excess [11]	Bliss excess [12]	Bliss excess [13]	Bliss excess (RD (Rhabdomyosarcoma))	Bliss excess (SJSA-1 (Osteosarcoma))	Bliss excess [14]	Bliss excess [15]	Bliss excess [16]	Bliss excess [17]
Cc1c2c(nn1C)CSCc1cc(n(C)n1)CSc1cc(c3ccccc3c1)OCCCc1c(C(=O)O)n(C)c3c-2c(Cl)ccc13 [AZD5991] + CCN(CCO)CCCOc1ccc2c(Nc3cc(CC(=O)Nc4cccc(F)c4)[nH]n3)ncnc2c1 [AZD2811] (first compound max 1 µM, 7x7, partner max 1 µM)	0.0305	0.0059	0.0055	0.0287	-0.0072	-0.0292	-0.0638	0.0134	0.0257	-0.0074	0.024	-0.0049	0.0531	0.123	0.0268	0.0839	0.039	0.0359	-0.0575	0.016
Cc1c2c(nn1C)CSCc1cc(n(C)n1)CSc1cc(c3ccccc3c1)OCCCc1c(C(=O)O)n(C)c3c-2c(Cl)ccc13 [AZD5991] + CC1(C)CCC(CN2CCN(c3ccc(C(=O)NS(=O)(=O)c4ccc(NCC5CCOCC5)c([N+](=O)[O-])c4)c(Oc4cnc5[nH]ccc5c4)c3)CC2)=C(c2ccc(Cl)cc2)C1 [Venetoclax] (first compound max 1 µM, 7x7, partner max 1 µM)	-0.031	0.0005	-0.0352	0.0306	0.0048	0.0026	0.0157	0.0098	0.0301	-0.0539	0.125	-0.032	-0.0378	0.243	0.0081	-0.0941	-0.0035	-0.0013	0.0088	-0.0605
COc1cc2c(cc1OCCCCCOc1cc3c(cc1OC)C(=O)N1C=C(C)C[C@H]1C=N3)N=C[C@@H]1CC(C)=CN1C2=O [SG3199] + O=C(c1cc(Cc2n[nH]c(=O)c3ccccc23)ccc1F)N1CCN(C(=O)C2CC2)CC1 [Olaparib] (first compound max 0.001 µM, 7x7, partner max 10 µM)	-0.0566	-0.0126	-0.0266	-0.0398	-0.0205	-0.006	-0.119	-0.0327	0.0202	-0.037	0.0049	-0.0225	-0.0385	-0.0148	-0.0453	-0.0252	-0.0066	-0.0322	-0.0258	-0.0461
Cc1c2c(nn1C)CSCc1cc(n(C)n1)CSc1cc(c3ccccc3c1)OCCCc1c(C(=O)O)n(C)c3c-2c(Cl)ccc13 [AZD5991] + C[C@@H]1COCCN1C2=NC(=NC(=C2)C3(CC3)[S@](=N)(=O)C)C4=C5C=CNC5=NC=C4 [AZD6738] (first compound max 1 µM, 7x7, partner max 10 µM)	-0.0081	0.0514	0.0265	0.0436	0.0395	0.0756	-0.0091	0.0496	-0.009	-0.0165	0.0037	0.0573	0.056	0.0188	0.0482	0.0711	0.026	0.0504	0.0248	0.0308
C=CCn1c(=O)c2cnc(Nc3ccc(N4CCN(C)CC4)cc3)nc2n1-c1cccc(C(C)(C)O)n1 [AZD1775] + O=C(c1cc(Cc2n[nH]c(=O)c3ccccc23)ccc1F)N1CCN(C(=O)C2CC2)CC1 [Olaparib] (first compound max 1 µM, partner max 10 µM)	-0.0167	0.0127	-0.0142	-0.021	-0.0075	0.0546	-0.047	-0.0254	-0.0239	0.0374	0.0405	-0.0458	-0.0111	-0.0152	-0.0532	-0.0262	-0.0139	-0.0396	-0.0197	-0.0443
COc1cccc(OCCCN)c1-c1cc(Nc2cnc(C#N)cn2)n[nH]1 [Prexasertib] + O=C(c1cc(Cc2n[nH]c(=O)c3ccccc23)ccc1F)N1CCN(C(=O)C2CC2)CC1 [Olaparib] (first compound max 1 µM, 7x7, partner max 10 µM)	-0.0147	-0.0281	-0.0164	0.0146	-0.0088	-0.0164	-0.0229	0.0296	-0.0312	-0.0643	-0.0224	-0.103	0.0161	-0.0214	-0.0444	-0.0639	-0.0472	-0.0572	-0.0406	-0.049
CN(CCO)CC[C@H](CSc1ccccc1)Nc1ccc(S(=O)(=O)NC(=O)c2ccc(N3CCC([C@@H](O)c4ccccc4-c4ccc(Cl)cc4)CC3)cc2)cc1S(=O)(=O)C(F)(F)F [AZD4320] + CCN(CCO)CCCOc1ccc2c(Nc3cc(CC(=O)Nc4cccc(F)c4)[nH]n3)ncnc2c1 [AZD2811] (first compound max 1 µM, 7x7, partner max 1 µM)	0.0873	-0.0073	0.0038	-0.0398	-0.0247	-0.0032	-0.0664	-0.0226	0.0816	-0.004	0.0171	0.0034	-0.0456	0.105	0.0335	-0.0059	0.026	-0.0135	-0.0097	-0.0508
CN(CCO)CC[C@H](CSc1ccccc1)Nc1ccc(S(=O)(=O)NC(=O)c2ccc(N3CCC([C@@H](O)c4ccccc4-c4ccc(Cl)cc4)CC3)cc2)cc1S(=O)(=O)C(F)(F)F [AZD4320] + Cn1cnc2c(F)c(Nc3ccc(Br)cc3Cl)c(C(=O)NOCCO)cc21 [Selumetinib] (first compound max 1 µM, 7x7, partner max 3 µM)	-0.0256	0.0454	0.04	0.0226	-0.0113	0.0264	-0.0211	-0.0091	-0.024	-0.0289	0.0296	-0.0045	0.0162	-0.0061	0.0308	0.0413	0.0177	0.0783	0.0086	-0.0195
Cc1c2c(nn1C)CSCc1cc(n(C)n1)CSc1cc(c3ccccc3c1)OCCCc1c(C(=O)O)n(C)c3c-2c(Cl)ccc13 [AZD5991] + Cn1cnc2c(F)c(Nc3ccc(Br)cc3Cl)c(C(=O)NOCCO)cc21 [Selumetinib] (first compound max 1 µM, 7x7, partner max 3 µM)	-0.0772	0.0226	0.0588	-0.0317	0.0145	-0.0139	0.0366	0.0244	-0.0124	-0.102	0.0409	0.0003	-0.0255	0.0123	0.039	-0.0733	0.016	0.0354	0.07	-0.0777
COc1cccc(OCCCN)c1-c1cc(Nc2cnc(C#N)cn2)n[nH]1 [Prexasertib] + Cc1cc2ncnn2cc1Nc1ncc2c(n1)n(C1CCOCC1)c(=O)n2C [AZD7648] (first compound max 1 µM, 7x7, partner max 10 µM)	-0.0143	0.043	-0.0095	0.0127	0.0256	0.0307	-0.0211	-0.0281	0.0085	-0.0178	-0.0094	-0.0331	0.0055	-0.0038	-0.0283	-0.0326	-0.0454	0.0353	-0.0289	-0.0074
COc1cccc(OCCCN)c1-c1cc(Nc2cnc(C#N)cn2)n[nH]1 [Prexasertib] + CN(C)CCCOc1ccc(-c2ccc3ncc4c(c3c2)n(C2CCOCC2)c(=O)n4C)cn1 [AZD0156] (first compound max 1 µM, 7x7, partner max 1 µM)	-0.039	0.0498	-0.0132	0.0778	0.0022	-0.0016	-0.0285	-0.0346	0.0343	-0.0826	-0.0248	0.0017	0.0204	-0.0158	-0.0008	-0.0246	-0.0519	0.0501	-0.0139	-0.0279
COc1nnc2ccc(N3CCC(c4ccc(OCCN5CCN(C)C(=O)[C@H]5C)cc4)CC3)nn12 [AZD5153] + C=CCn1c(=O)c2cnc(Nc3ccc(N4CCN(C)CC4)cc3)nc2n1-c1cccc(C(C)(C)O)n1 [AZD1775] (first compound max 1 µM, partner max 1 µM)	0.0085	0.0072	-0.0496	-0.0367	-0.0271	-0.0172	-0.0724	0.0205	-0.0243	-0.106	-0.0225	-0.0858	-0.0461	-0.0252	-0.0171	-0.0313	-0.0008	-0.0315	-0.0492	-0.0287
CN(CCO)CC[C@H](CSc1ccccc1)Nc1ccc(S(=O)(=O)NC(=O)c2ccc(N3CCC([C@@H](O)c4ccccc4-c4ccc(Cl)cc4)CC3)cc2)cc1S(=O)(=O)C(F)(F)F [AZD4320] + Cc1cc2ncnn2cc1Nc1ncc2c(n1)n(C1CCOCC1)c(=O)n2C [AZD7648] (first compound max 1 µM, 7x7, partner max 10 µM)	0.0101	-0.006	-0.0484	-0.0514	0.0046	-0.025	-0.133	-0.0356	0.0317	-0.0258	0.0157	-0.059	-0.0676	-0.0069	-0.0189	-0.0406	-0.0034	-0.0291	-0.0066	-0.058
CN(C)CCCOc1ccc(-c2ccc3ncc4c(c3c2)n(C2CCOCC2)c(=O)n4C)cn1 [AZD0156] + CCN(CCO)CCCOc1ccc2c(Nc3cc(CC(=O)Nc4cccc(F)c4)[nH]n3)ncnc2c1 [AZD2811] (first compound max 1 µM, 7x7, partner max 1 µM)	-0.0389	-0.0163	0.0128	-0.0209	-0.124	-0.0596	-0.0427	-0.0297	0.13	-0.0165	-0.0617	-0.0059	-0.0048	0.0113	-0.0374	-0.0348	-0.0156	-0.0184	-0.11	-0.0451

Reference: the supplement of paper PMC11061612
